Several values for one entry are separate records, joined by “and”; a condition that tells them apart may be missing. Equal values may be shown once. Where a name gives a salt, the structure may show the parent alone. Read-outs that look alike come from different tables or passages of the source.
Experiments:
[1] = molecular target: T1, MMP-1FL (full-length interstitial collagenase) (Homo sapiens, UniProt P03956); assay: Thiopeptolide hydrolysis assay, MMP-1; assay type: biochemical; details: read-out: MMP01 IC50
T1 sequence (P03956 100-469): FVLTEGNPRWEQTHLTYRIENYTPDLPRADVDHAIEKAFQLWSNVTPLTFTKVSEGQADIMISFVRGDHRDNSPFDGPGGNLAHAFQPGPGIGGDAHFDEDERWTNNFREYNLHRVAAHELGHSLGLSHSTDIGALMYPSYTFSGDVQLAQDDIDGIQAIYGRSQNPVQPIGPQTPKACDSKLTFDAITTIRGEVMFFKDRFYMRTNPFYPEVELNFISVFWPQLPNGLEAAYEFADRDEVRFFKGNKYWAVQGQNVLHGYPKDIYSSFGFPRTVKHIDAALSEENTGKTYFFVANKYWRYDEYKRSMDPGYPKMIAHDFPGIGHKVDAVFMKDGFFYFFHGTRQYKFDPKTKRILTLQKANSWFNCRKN
Method: They measure the amount by which a test compound reduces the hydrolysis of a thiopeptolide substrate caused by a matrix metalloproteinase enzyme.
Thiopeptolide substrates show virtually no decomposition or hydrolysis in the absence of a matrix metalloproteinase enzyme. A typical thiopeptolide substrate commonly utilized for assays is Ac-Pro-Leu-Gly-thioester-Leu-Leu-Gly-OEt. A 100 μL assay mixture will contain 50 mM of 2-morpholinoethane sulfonic acid monohydrate (MES, pH 6.0) 10 mM CaCl2, 100 μM thiopeptolide substrate, and 1 mM 5,5′-dithio-bis-(2-nitro-benzoic acid) (DTNB). […] The change in absorbance at 405 nm is monitored on a Thermo Max microplate reader (moleucular Devices, Menlo Park, Calif.) at room temperature (22° C.). […] Assays are carried out with and without matrix metalloproteinase inhibitor compounds, and the amount of hydrolysis is compared for a determination of inhibitory activity of the test compounds.

[2] = molecular target: MMP-3CD (catalytic domain of stromelysin) (Homo sapiens, UniProt P08254); assay: Thiopeptolide hydrolysis assay, MMP-3; assay type: biochemical; details: read-out: MMP03 IC50;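 further: inhibition of thiopeptolide substrate (100 µM) cleavage by the MMP-3 catalytic domain, detected with DTNB at pH 6.0 with CaCl2, hydrolysis compared against runs lacking inhibitor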
MMP-3CD (catalytic domain of stromelysin), sequence (P08254 100-272 limits assumed): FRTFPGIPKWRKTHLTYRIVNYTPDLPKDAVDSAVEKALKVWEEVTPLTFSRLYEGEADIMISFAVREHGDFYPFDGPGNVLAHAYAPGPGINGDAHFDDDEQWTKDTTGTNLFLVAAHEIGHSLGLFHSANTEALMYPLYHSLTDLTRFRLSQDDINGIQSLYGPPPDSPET

[3] = molecular target: MMP-13CD (catalytic domain of collagenase 3) (Homo sapiens, UniProt P45452); assay: Thiopeptolide hydrolysis assay, MMP-13;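 further: inhibition of enzymatic thiopeptolide substrate cleavage (100 µM) in pH 6.0 MES buffer with CaCl2 and DTNB, comparing hydrolysis with versus without inhibitor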

| IC50 ([3]; MMP13 IC50 (nM), Table II) | IC50 ([3]; MMP13 IC50 μM, Table IVb) | SMILES | further results |
| --- | --- | --- | --- |
| 185 nM | – | COc1ccc(C(=O)NCc2ccc3c(c2)OCO3)cc1C(=O)NCc1ccc2c(c1)OCO2 [N,N′-Bis-1,3-benzodioxol-5-ylmethyl-4-methoxy-isophthalamide] | IC50 ([1]; Table II): > 100 µM; IC50 ([2]; Table II): 50 µM |
| 900 nM | – | COc1ccc(C(=O)OCc2ccccc2)cc1C(=O)OCc1ccccc1 [4-Methoxy-isophthalic acid dibenzyl ester] | IC50 ([1]; Table II): > 100 µM; IC50 ([2]; Table II): > 100 µM |
| – | – | COc1ccc(CNC(=O)c2cn3c(=O)n(Cc4ccccc4)c(=O)c(C)c3s2)cn1 [hydrochloride] | IC50 ([2]; Table 1b): 20.5 µM; IC50 ([3]; MMP13 IC50 (μM), Table 1b): 20.8 nM |
| – | – | COC(=O)c1ccc(Cn2c(=O)c(C)c3sc(C(=O)NCc4ccc(F)cc4)cn3c2=O)cc1OC | IC50 ([1]; Table 1b): > 30 µM; IC50 ([3]; MMP13 IC50 (μM), Table 1b): 99 nM |
| 33 nM | – | O=C(O)c1ccc(COC(=O)c2cccc(C(=O)NCc3ccc4c(c3)OCO4)c2)cc1 | IC50 ([1]; Table II): > 100 µM |
| – | – | O=C(OCc1ccc2nsnc2c1)c1cccc(C(=O)OCc2ccc3nsnc3c2)c1 | IC50 ([1]; Table II): > 100 µM; IC50 ([2]; Table II): > 30 µM |
| 250 nM | – | COc1ccc(CNC(=O)c2ccc(OC)c(C(=O)NCc3ccc(OC)cc3)c2)cc1 [4-Methoxy-N,N′-bis-(4-methoxybenzyl)-isophthalamide] [listing 1 of 2 here] | IC50 ([2]; Table II): 82 µM |
| – | – | COc1ccc(CNC(=O)c2ccc(OC)c(C(=O)NCc3ccc(OC)cc3)c2)cc1 [4-Methoxy-N,N′-bis-(4-methoxybenzyl)-isophthalamide] [listing 2 of 2 here] | IC50 ([1]; Table II): > 100 µM |
| – | – | Cc1c(=O)n(Cc2ccccc2)c(=O)n2cc(C(=O)NCc3cccnc3)sc12 [hydrochloride] | IC50 ([1]; Table 1b): > 30 µM; IC50 ([3]; MMP13 IC50 (μM), Table 1b): 260 nM |
| – | – | COc1ccc(C(=O)OCc2ccc3nsnc3c2)cc1C(=O)OCc1ccc2nsnc2c1 | IC50 ([1]; Table II): 30 µM |
| 330 nM and 683 nM | – | O=C(NCc1ccc2c(c1)OCO2)c1cccc(C(=O)NCc2ccc3c(c2)OCO3)c1 [Synthesis Example 11, N,N-Bis-1,3-benzodioxol-5-ylmethyl-isophthalamide] | IC50 ([2]; Table II): 69 µM and 81 µM |
| – | 53 nM | COc1ccc(CNC(=O)c2ccc3c(c2)c(=O)n(Cc2ccc(N)nc2)c(=O)n3C)cc1 | – |
| – | 46 nM | COc1ccc(CNC(=O)c2ccc3c(c2)c(=O)n(Cc2cccnc2)c(=O)n3C)cc1 | – |
| – | 20 nM | COC(=O)Cc1ccc(Cn2c(=O)c3cc(C(=O)NCc4ccncc4)ccc3n(C)c2=O)cc1 | – |
| – | 2550 nM | CCOC(=O)CCCn1c(=O)c2cc(C(=O)NCc3ccc(OC)cc3)ccc2n(C)c1=O | – |
| – | 0.78 nM | Cn1c(=O)n(Cc2ccccc2)c(=O)c2cc(C(=O)NCc3ccc4c(c3)OCO4)ncc21 [3-Benzyl-1-methyl-2,4-dioxo-1,2,3,4-tetrahydro-pyrido[3,4-d]pyrimidine-6-carboxylic acid (1,3-benzodioxol-5-ylmethyl)-amide] | – |
| 5200 nM | – | CC(=O)Nc1ccc(C(=O)NCc2ccc3c(c2)OCO3)cc1C(=O)NCc1ccc2c(c1)OCO2 | – |
| – | 12 nM | COc1ccc(CNC(=O)c2ccc3c(c2)c(=O)n(Cc2ccc(F)c(Cl)c2)c(=O)n3C)cc1 | – |
| 3100 nM | – | COc1ccc(C(=O)NCCOc2ccccc2)cc1C(=O)NCc1ccc2c(c1)OCO2 | – |
| 1830 nM | – | CCOc1ccc(C(=O)NCc2cccc(OC)c2)cc1C(=O)NCc1cccc(OC)c1 | – |
| – | 340 nM | Cn1c(=O)n(Cc2ccccc2)c(=O)c2cc(C(=O)NCc3ccc(C#N)cc3)ccc21 | – |
| – | – | COC(=O)c1ccc(Cn2c(=O)c3cc(C(=O)NCc4ccncc4)ccc3n3cnnc23)cc1 [Methyl 4-{7-[(pyridin-4-ylmethyl)-carbamoyl]-5-oxo-5H-[1,2,4]triazolo[4,3-a]quinazol-4-ylmethyl}benzoate] | IC50 ([3]; IC50 μM, Table V, MMP-13): 12 nM |
| – | 71 nM | Cn1c(=O)n(Cc2ccc(F)cc2)c(=O)c2cc(C(=O)NCc3ccncc3)ccc21 | – |
| 430 nM | – | COc1ccc(CNC(=O)c2ccc(OC)c(C(=O)NCc3ccccc3)c2)cc1 | – |
| – | 340 nM | CCn1c(=O)n(Cc2ccc(C(=O)OC)cc2)c(=O)c2cc(C(=O)NCc3ccc(OC(F)(F)F)cc3)ccc21 | – |
| – | 680 nM | C#CCn1c(=O)c2cc(C(=O)NCc3ccc(OC)cc3)ccc2n(C)c1=O | – |
| – | 25 nM | COc1ccc(CNC(=O)c2ccc3c(c2)c(=O)n(Cc2ccc(-c4ccccc4-c4nnn[nH]4)cc2)c(=O)n3C)cc1 | – |
| – | 31 nM | CCn1c(=O)n(Cc2ccc(C(=O)OC)cc2)c(=O)c2cc(C(=O)NCc3ccc(OC)cc3)ccc21 | – |
| – | – | COc1ccc(CNC(=O)c2ccc3c(c2)c(=O)n(Cc2ccc(C(=O)O)cc2)c2nncn32)cc1 [Synthesis Example 60, 4-{7-[(4-Methoxybenzyl)-carbamoyl]-5-oxo-5H-[1,2,4]triazolo[4,3-a]quinazol-4-ylmethyl}benzoic acid] | IC50 ([3]; IC50 μM, Table V, MMP-13): 1.1 nM |
